# Laboratory results: the supplement of paper PMC10307832
# Experiments:
# Test in all cases: relative viability (nuclei count vs DMSO), 5 days (fraction); higher = more cells survive
# kb NB 142-70 + Alpelisib = compound: C1CSC2=C(C(=O)N1)SC3=C2C=C(C=C3)O [kb NB 142-70] + Cc1nc(NC(=O)N2CCC[C@H]2C(N)=O)sc1-c1ccnc(C(C)(C)C(F)(F)F)c1 [Alpelisib] (partner 2 µM)
# Outline: (§1)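 Medians of duplicate plates are given as relative viability. That measure is the nuclei count in treated wells divided by the count in vehicle wells. Counts were taken on 4× images of lung cancer cell lines in 1536-well plates, 5 days after pin-tool dosing the day after seeding with one drug alone or a fixed anchor-drug dose plus five library-drug doses (not always all listed) in √10 steps.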
# [1] = compound: C1CSC2=C(C(=O)N1)SC3=C2C=C(C=C3)O [kb NB 142-70] + Nc1nc2[nH]cc(CCc3ccc(C(=O)N[C@@H](CCC(=O)O)C(=O)O)cc3)c2c(=O)[nH]1 [Pemetrexed] (partner 0.2 µM)
# Outline: as §1
# kb NB 142-70 + Olaparib = compound: C1CSC2=C(C(=O)N1)SC3=C2C=C(C=C3)O [kb NB 142-70] + O=C(c1cc(Cc2n[nH]c(=O)c3ccccc23)ccc1F)N1CCN(C(=O)C2CC2)CC1 [Olaparib] (partner 8 µM)
# Outline: as §1
# [2] = compound: NCC(=O)Nc1ccc(-n2nc(C(F)(F)F)cc2-c2ccc3c(ccc4ccccc43)c2)cc1 + C[C@]1(O)C[C@@H](c2nc(-c3ccc4ccc(-c5ccccc5)nc4c3)c3c(N)nccn32)C1 [Linsitinib] (partner 1 µM)
# Outline: as §1
# [3] = compound: NCC(=O)Nc1ccc(-n2nc(C(F)(F)F)cc2-c2ccc3c(ccc4ccccc43)c2)cc1 + CC(C)C[C@H](NC(=O)[C@H](Cc1ccccc1)NC(=O)c1cnccn1)B(O)O [Bortezomib] (partner 0.002 µM)
# Outline: as §1
Cell Line,relative viability (kb NB 142-70 + Alpelisib; first compound 0.1 µM),relative viability (kb NB 142-70 + Alpelisib; first compound 1 µM),relative viability (kb NB 142-70 + Alpelisib; first compound 3.162 µM),relative viability ([1]; first compound 0.1 µM),relative viability ([1]; first compound 1 µM),relative viability ([1]; first compound 3.162 µM),relative viability (kb NB 142-70 + Olaparib; first compound 0.1 µM),relative viability (kb NB 142-70 + Olaparib; first compound 1 µM),relative viability (kb NB 142-70 + Olaparib; first compound 3.162 µM),relative viability ([2]; first compound 0.02 µM),relative viability ([2]; first compound 0.06325 µM),relative viability ([2]; first compound 0.2 µM),relative viability ([2]; first compound 0.6325 µM),relative viability ([2]; first compound 2 µM),relative viability ([3]; first compound 0.02 µM),relative viability ([3]; first compound 0.06325 µM),relative viability ([3]; first compound 0.2 µM),relative viability ([3]; first compound 0.6325 µM),relative viability ([3]; first compound 2 µM)
NCI-H358,0.885,0.578,0.131,0.175,0.141,0.114,0.531,0.489,0.297,0.807,0.8,0.72,0.868,0.737,–,–,–,–,–
NCI-H1944,0.874,0.817,0.853,0.633,0.757,0.665,0.434,0.414,0.482,1.14,1.21,1.16,1.11,1.3,–,–,–,–,–
NCI-H1648,–,–,–,0.731,0.763,0.932,0.645,0.707,0.738,–,–,–,–,–,–,–,–,–,–
EBC-1,0.864,0.798,0.491,–,–,–,0.775,0.587,0.385,0.888,0.856,0.892,0.899,0.895,0.533,0.556,0.738,0.52,0.589
NCI-H1299,1.02,1.11,1.17,–,–,–,1.02,0.949,0.837,0.937,0.971,1.05,0.929,0.999,0.992,1.03,1.1,0.972,1.04
NCI-H2342,–,–,–,0.781,0.774,0.697,0.397,0.458,0.408,–,–,–,–,–,–,–,–,–,–
IA-LM,0.795,0.759,0.756,–,–,–,0.841,0.771,0.807,0.802,0.39,0.558,0.706,0.539,0.775,0.721,0.802,0.814,0.813
SK-MES-1,0.932,0.922,0.833,1,1.11,0.548,0.719,0.484,0.181,1.08,1.03,1.11,0.997,1.17,–,–,–,–,–
NCI-H2170,0.76,0.852,0.561,0.273,0.296,0.333,0.661,0.596,0.543,–,–,–,–,–,–,–,–,–,–
NCI-H727,0.65,0.72,0.495,–,–,–,0.743,0.592,0.68,0.297,0.275,0.377,0.352,0.493,0.849,0.977,0.724,0.847,1.04
NCI-H1793,0.589,0.711,0.636,0.73,0.902,0.609,0.88,1.02,0.508,0.826,0.799,0.893,0.966,0.962,–,–,–,–,–
